Results from paper PMC11254100 (Angewandte Chemie (International ed. in English), 2024).

Target: CAHEX:6HIS (Human immunodeficiency virus type 1 group M subtype B, UniProt P12493, A146C/E177C/M317A/W316A)
Settings: BLI, CAHEX:6HIS immobilized on HIS-affinity probes

## Lenacapvir
  koff: 2.978 ± 0.015 x10^−4 s^−1
  kon: 1.040 ± 0.007 x10^4 M^−1s^−1
